Assay results from patent US20100029615A1, “BENZIMIDAZOLE DERIVATIVES” (priority 2006, published 2010).
Structures can show the parent of a compound that is named as a salt. Where two headings read alike, the source gives them in different places.

Molecular target: T1, SMO (Mus musculus, UniProt P56726)
T1 construct: endogenous in cells; host or cells: C3H10T1/2 (ATCC #CCL-226)
Test: Smoothened (SMO)/Sonic Hedgehog (SHh) Transient Transcriptional Activation Assay (Gli-luciferase reporter in C3H10T1/2 cells)
Format: cell-based, murine
Details: SHh 250 ng/ml, 20 hrs
Method in brief: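 Luminescence (Dual-Glo) measured after 20 h co-exposure at 37 °C to 250 ng/ml human SHh and compound at 2 uM down to 2 nM final. Cells were C3H10T1/2 carrying a transfected murine 10× Gli response-element luciferase construct with pEGFP, starved 20 h in 0.5% calf serum beforehand.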

[1] = C3H 10T1/2, 2 μM test compound, read-out: SMO CELL % INHIBITION @ 2 μM

T1 sequence (P56726 33-793): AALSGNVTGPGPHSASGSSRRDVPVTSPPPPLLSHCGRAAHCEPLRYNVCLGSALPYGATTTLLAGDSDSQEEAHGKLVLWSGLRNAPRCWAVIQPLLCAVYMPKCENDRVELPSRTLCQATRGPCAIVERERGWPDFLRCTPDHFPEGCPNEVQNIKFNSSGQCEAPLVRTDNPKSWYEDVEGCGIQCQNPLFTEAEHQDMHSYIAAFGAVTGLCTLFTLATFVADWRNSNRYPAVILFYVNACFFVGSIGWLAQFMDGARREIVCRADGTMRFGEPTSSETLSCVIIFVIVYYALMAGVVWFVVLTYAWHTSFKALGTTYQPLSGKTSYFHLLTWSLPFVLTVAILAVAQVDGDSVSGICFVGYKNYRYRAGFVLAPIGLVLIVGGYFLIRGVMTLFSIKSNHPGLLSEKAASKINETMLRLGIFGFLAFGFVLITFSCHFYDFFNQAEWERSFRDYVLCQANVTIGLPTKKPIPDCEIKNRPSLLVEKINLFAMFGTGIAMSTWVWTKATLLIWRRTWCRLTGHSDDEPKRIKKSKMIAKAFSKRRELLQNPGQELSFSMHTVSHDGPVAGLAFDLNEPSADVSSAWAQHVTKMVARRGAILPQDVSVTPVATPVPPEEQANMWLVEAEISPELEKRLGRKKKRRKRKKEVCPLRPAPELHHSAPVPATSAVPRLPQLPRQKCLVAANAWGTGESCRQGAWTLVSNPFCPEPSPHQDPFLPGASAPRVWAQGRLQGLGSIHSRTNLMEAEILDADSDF

Row | Molecule | inhibition at 2 µM [1] [%] | also measured
1 | O=C(N[C@@H]1CCC[C@H](c2nc3cc(C(F)(F)F)ccc3[nH]2)C1)c1n[nH]c2c1CCCCCC2 [Example 283, N-{(1R,3S)-3-[5-(trifluoromethyl)-1H-benzimidazol-2-yl]cyclohexyl} 4,5,6,7,8,9-hexahydro-1H-cycloocta[c]-pyrazole-3-carboxamide HCl] | 106 | 
2 | Cc1nn(C)c2sc(C(=O)N[C@@H]3CCC[C@H](c4nc5cc(C(F)(F)F)ccc5[nH]4)C3)cc12 [Example 284, 1,3-dimethyl-N-{(1R,3S)-3-[5-(trifluoromethyl)-1H-benzimidazol-2-yl]cyclohexyl}-1H-thieno[2,3-c]pyrazole-5-carboxamide HCl] | 94.9 | 
3 | O=C1CCc2cc(C(=O)N[C@@H]3CCC[C@H](c4nc5cc(C(F)(F)F)ccc5[nH]4)C3)ccc2N1 [Example 285, 2-oxo-N-{(1R,3S)-3-[5-(trifluoromethyl)-1H-benzimidazol-2-yl]cyclohexyl}-1,2,3,4-tetrahydroquino-line-6-carboxamide HCl] | 111 | 
4 | O=C1Cc2cc(C(=O)N[C@@H]3CCC[C@H](c4nc5cc(C(F)(F)F)ccc5[nH]4)C3)ccc2N1 [Example 286, 2-oxo-N-{(1R,3S)-3-[5-(trifluoromethyl)-1H-benzimidazol-2-yl]cyclohexyl} indoline-5-carboxamide HCl] | 114 | 
5 | O=C(N[C@@H]1CCC[C@H](c2nc3cc(C(F)(F)F)ccc3[nH]2)C1)c1ccc2c(c1)CCNC2 [Example 287, N-{(1R,3S)-3-[5-(trifluoromethyl)-1H-benzimidazol-2-yl]cyclohexyl}-1,2,3,4-tetrahydroisoquino-line-6-carboxamide HCl] | 107 | 
6 | O=C(NC12CCCC(c3nc4cc(C(F)(F)F)ccc4[nH]3)(C1)C2)c1c(F)c(F)c(F)c(F)c1F [Example 288, 2,3,4,5,6-pentafluoro-N-{5-[5-(trifluoromethyl)-1H-benzimidazol-2-yl]bicyclo[3.1.1]hept-1-yl}benzamide] | 93.3 | 
7 | O=C(N[C@@H]1CCC[C@H](c2nc3cc(C(F)(F)F)ccc3[nH]2)C1)c1ccc2c(c1)CN(CC1CC1)CC2 [Example 290, 2-(cyclopropyl-methyl)-N-{(1R,3S)-3-[5-(trifluoromethyl)-1H-benzimidazol-2-yl]cyclohexyl}-1,2,3,4-tetrahydroisoquino-line-7-carboxamide HCl] | 104 | 
8 | Cl.O=C(N[C@H]1CCC[C@H](c2nc3ccccc3[nH]2)C1)c1ccc2c(c1)CN(CC1CC1)CC2 [Example 291, N-[(1S,3S)-3-(1H-benzimidazol-2-yl)cyclohexyl]-2-(cyclopropyl-methyl)-1,2,3,4-tetrahydroisoquino-line-7-carboxamide HCl] |  | SMO CELL % INHIBITION @ 2 μM (2 μM test compound): 85.2%
9 | COCCNc1ccc(C(=O)N[C@@H]2CCC[C@H](c3nc4cc(C(F)(F)F)ccc4[nH]3)C2)cn1 [Example 292, 6-[(2-methoxyethyl)amino]-N-{(1R,3S)-3-[5-(trifluoromethyl)-1H-benzimidazol-2-yl]cyclohexyl} nicotinamide HCl] | 104 | 
10 | CN(C)CCNc1ccc(C(=O)N[C@@H]2CCC[C@H](c3nc4cc(C(F)(F)F)ccc4[nH]3)C2)cn1 [Example 293, 6-{[2-(dimethylamino)ethyl]amino}-N-{(1R,3S)-3-[5-(trifluoromethyl)-1H-benzimidazol-2-yl]cyclohexyl}-nicotinamide HCl] | 106 | 
11 | O=C1COc2ccc(C(=O)N[C@@H]3CCCC(c4nc5ccccc5[nH]4)C3)cc2N1 (stereo partly drawn) [Example 294, N-[(1R)-3-(1H-benzimidazol-2-yl)cyclohexyl]-3-oxo-3,4-dihydro-2H-1,4-benzoxazine-6-carboxamide (+)-tartrate] | 62.5 | 
12 | O=C(N[C@@H]1CCC[C@H](c2nc3cc(C(F)(F)F)ccc3[nH]2)C1)c1ccc2c(c1)CCN(CC1CC1)C2 [Example 295] | 105 | 
13 | O=C(N[C@@H]1CCC[C@H](c2nc3cc(Cl)ccc3[nH]2)C1)c1ccc2c(c1)CN(CC1CC1)CC2 [Example 296, N-[(1R,3S)-3-(5-chloro-1H-benzimidazol-2-yl)cyclohexyl]-2-(cyclopropyl-methyl)-1,2,3,4-tetrahydroisoquino-line-7-carboxamide (+)-tartrate] | 106 | 
14 | CN1C(=O)COc2ccc(C(=O)N[C@@H]3CCC[C@H](c4nc5ccccc5n4C)C3)cc21 [Example 297, 4-methyl-N-[(1R,3S)-3-(1-methyl-1H-benzimidazol-2-yl)cyclohexyl]-3-oxo-3,4-dihydro-2H-1,4-benzoxazine-6-carboxamide (+)-tartrate] | 106 | 
15 | COc1cc(OC)cc(C(=O)N[C@@H]2CCC[C@H](c3nc4cc(Cl)ccc4[nH]3)C2)c1 [Example 298, N-[(1R,3S)-3-(5-chloro-1H-benzimidazol-2-yl)cyclohexyl]-3,5-dimethoxybenz-amide (+)-tartrate] | 104 | 
16 | O=C1COc2ccc(C(=O)N[C@@H]3CCC[C@H](c4nc5cc(Cl)ccc5[nH]4)C3)cc2N1 [Example 299, N-[(1R,3S)-3-(5-chloro-1H-benzimidazol-2-yl)cyclohexyl]-3-oxo-3,4-dihydro-2H-1,4-benzoxazine-6-carboxamide (+)-tartrate] | 105 | 
17 | O=C1CCc2cc(C(=O)N[C@@H]3CCC[C@H](c4nc5cc(Cl)ccc5[nH]4)C3)ccc2N1 [Example 300, N-[(1R,3S)-3-(5-chloro-1H-benzimidazol-2-yl)cyclohexyl]-2-oxo-1,2,3,4-tetrahydroquino-line-6-carboxamide (+)-tartrate] | 106 | 
18 | CN1C(=O)COc2ccc(C(=O)N[C@@H]3CCC[C@H](c4nc5cc(Cl)ccc5[nH]4)C3)cc21 [Example 301, N-[(1R,3S)-3-(5-chloro-1H-benzimidazol-2-yl)cyclohexyl]-4-methyl-3-oxo-3,4-dihydro-2H-1,4-benzoxazine-6-carboxamide (+)-tartrate] | 108 | 
19 | [N-]=[N+]=Nc1c(F)c(F)c(C(=O)NC23CCCC(c4nc5cc(C(F)(F)F)ccc5[nH]4)(C2)C3)c(F)c1F [Example 302, 4-azido-2,3,5,6-tetrafluoro-N-{5-[5-(trifluoromethyl)-1H-benzimidazol-2-yl]bicyclo[3.1.1]hept-1-yl}benzamide] | 97.1 | 
20 | O=C(N[C@@H]1CCC[C@H](c2nc3cc(C(F)(F)F)ccc3[nH]2)C1)c1ccc2c(c1)CNCC2 [Example 303, N-{(1R,3S)-3-[5-(trifluoromethyl)-1H-benzimidazol-2-yl]cyclohexyl}-1,2,3,4-tetrahydroiso-quinoline-7-carboxamide HCl] | 111 | 
21 | CN1C(=O)CCc2cc(C(=O)N[C@@H]3CCC[C@H](c4nc5cc(C(F)(F)F)ccc5[nH]4)C3)ccc21 [Example 304, 1-methyl-2-oxo-N-[(1R,3S)-3-[5-(trifluoromethyl)-1H-benzimidazol-2-yl]cyclohexyl}-1,2,3,4-tetrahydroquin-oline-6-carboxamide (+)-tartrate] | 111 | 
22 | CN1C(=O)CCc2cc(C(=O)N[C@@H]3CCC[C@H](c4nc5cc(Cl)ccc5[nH]4)C3)ccc21 [Example 305, N-[(1R,3S)-3-(5-chloro-1H-benzimidazol-2-yl)cyclohexyl]-1-methyl-2-oxo-1,2,3,4-tetrahydroquino-line-6-carboxamide (+)-tartrate] | 81.2 | 
23 | Cc1cc2c(cc1C(=O)NC13CCCC(c4nc5cc(C(F)(F)F)ccc5[nH]4)(C1)C3)OCCO2 [Example 306, 7-methyl-N-{5-[5-(trifluoromethyl)-1H-benzimidazol-2-yl]bicyclo[3.1.1]hept-1-yl}-2,3-dihydro-1,4-benzodioxine-6-carboxamide] | 110 | 
24 | Cc1cc2c(cc1C(=O)N[C@@H]1CCC[C@H](c3nc4ccccc4[nH]3)C1)OCCO2 [Example 307, N-[(1R,3S)-3-(1H-benzimidazol-2-yl)cyclohexyl]-7-methyl-2,3-dihydro-1,4-benzodioxine-6-carboxamide] | 90.5 | 
25 | O=C(N[C@@H]1CCC[C@H](c2nc3ccccc3[nH]2)C1)c1ccc2c(c1)CNCC2 [Example 308, N-[(1R,3S)-3-(1H-benzimidazol-2-yl)cyclohexyl]-1,2,3,4-tetrahydroiso-quinoline-7-carboxamide HCl] | 96.2 | 
26 | O=C(N[C@@H]1CCC[C@H](c2nc3ccccc3[nH]2)C1)c1ccc2c(c1)CCNC2 [Example 309, N-[(1R,3S)-3-(1H-benzimidazol-2-yl)cyclohexyl]-1,2,3,4-tetrahydroiso-quinoline-6-carboxamide HCl] | 102 | 
27 | Cn1c([C@H]2CCC[C@@H](NC(=O)c3ccc4c(c3)CNCC4)C2)nc2ccccc21 [Example 310, N-[(1R,3S)-3-(1-methyl-1H-benzimidazol-2-yl)cyclohexyl]-1,2,3,4-tetrahydroiso-quinoline-7-carboxamide HCl] | 91.6 | 
28 | Cn1c([C@H]2CCC[C@@H](NC(=O)c3ccc4c(c3)CCNC4)C2)nc2ccccc21 [Example 311, N-[(1R,3S)-3-(1-methyl-1H-benzimidazol-2-yl)cyclohexyl]-1,2,3,4-tetrahydroiso-quinoline-6-carboxamide HCl] | 100 | 
29 | O=C(N[C@@H]1CCC[C@H](c2nc3ccccc3[nH]2)C1)c1ccc(Cl)nc1 [N-((1R,3S)-3-(1H-Benzo[d]imidazol-2-yl)cyclohexyl)-6-chloronicotinamide] |  | inhibition at 2 µM (C3H 10T1/2, 2 uM test compound, read-out: SMO % inhibition at 2 uM): 103%
30 | N-(3-(1,5-Dimethyl-1H-benzo[d]imidazol-2-yl)cyclohexyl]-3,5-dimethoxybenzamide and N-(3-(1,6-dimethyl-1H-benzo[d]imidazol-2-yl)cyclohexyl]-3,5-dimethoxybenzamide [Example 22] |  | SMO % inhibition at 2 uM (2 uM test compound): 98%
